For one series, the system named is SK-OV-3 cancer cells. The series can be described thus: SK-OV-3 cancer cell proliferation inhibition (WST-1 assay). It counts as cell-based. As to conditions: Homo sapiens, read-out: Proliferation inhibition effect (10 nM; %). Here is the method: Meanwhile, in the present Example, proliferation inhibition effect of the compound in accordance with Comparative Example 1 and the compounds corresponding to Entry 59 to Entry 72 on SK-OV-3 cancer cells were checked, and a result thereof was as shown in [Table 5].
<Experiment Method of Proliferation Inhibition Effect>
SK-OV-3 cells floated on McCoy's 5A Medium in which 10% FBS and 1% P/S were added were inoculated into a 96-Well plate at a concentration of 3×10^4/100 μl per Well and cultured at 37° C. for 4 hours and then, treated with 100 μl of each compound, so that a final concentration of 10 nM was attained. Then, the cells were cultured at 37° C. for 72 hours. As a control, the cells were treated with DMSO as a solvent of the compounds to attain a final concentration of 0.1%. Each well was treated with 10 μl of a WST-1 assay reagent (iTSBio, Korea), and cultured at 37° C. for 2 hours. Then, absorbance was measured with an automatic Microplate Reader at 450 nm. A cell growth inhibition level was calculated by {(A450control−A450compound)/A450control}*100.

Read-outs that look alike come from different tables or passages of the source.

For `COc1ccc2c(O)cc3c(c2c1)[C@H](CCl)CN3C(=O)c1cc2cc(NC(C)=O)ccc2[se]1` [Entry 61, seco-MCBI-Acetamino-Selenophene], the inhibition at 0.01 µM with SK-OV-3 cancer cells (SK-OV-3, 72 h) was found to be 81%. Consider `COc1ccc2[se]c(C(=O)N3C[C@@H](CCl)c4c3cc(O)c3ccc(OC)cc43)cc2c1` [Entry 60, seco-MCBI-Methoxy-Selenophene], for which the inhibition at 0.01 µM with SK-OV-3 cancer cells (SK-OV-3, 72 h) was found to be 78%. Turning to `COc1ccc2c(O)cc3c(c2c1)[C@H](CCl)CN3C(=O)c1cc2cc(OC)c(OC)cc2[se]1` [Entry 67], the inhibition at 0.01 µM in the series with SK-OV-3 cancer cells (SK-OV-3, 72 h) stood at 78%. Take `COc1cc2cc(C(=O)N3C[C@@H](CCl)c4c3cc(O)c3ccccc43)[nH]c2c(OC)c1OC` [Entry 70, CBI-TMI, reference compound]: the inhibition at 0.01 µM in the series with SK-OV-3 cancer cells (SK-OV-3 cells, final concentration of 10 nM, cultured 72 hours, WST-1, absorbance 450 nm, vs DMSO control) came out at 80%.

Take `COc1ccc2c(O)cc3c(c2c1)[C@H](CCl)CN3C(=O)c1cc2cc(OC)c(OC)c(OC)c2[nH]1` [Comparative Example 1, seco-MCBI-TMI, reference compound]: in the series on SK-OV-3 cancer cells (SK-OV-3, 72 h), the inhibition at 0.01 µM came to 80%.

Consider `COc1ccc2c(c1)C13CC1CN(C(=O)c1cc4cc(NC(C)=O)ccc4[se]1)C3=CC2=O` (stereo not drawn) [Entry 62], for which the inhibition at 0.01 µM in the series with SK-OV-3 cancer cells (SK-OV-3, 72 h) came out at 86%. Same read-out and setting: as for `CCCCCC(=O)Nc1ccc2[se]c(C(=O)N3C[C@@H](CCl)c4c3cc(O)c3ccc(OC)cc43)cc2c1` [Entry 66], the figure is 87%. Turning to `COc1ccc2c(O)cc3c(c2c1)[C@H](CCl)CN3C(=O)c1cc2sccc2[se]1` [Entry 63], the inhibition at 0.01 µM with SK-OV-3 cancer cells (SK-OV-3, 72 h) is 78%. For `COc1ccc2c(O)cc3c(c2c1)[C@H](CCl)CN3C(=O)c1cc2cccnc2[se]1` [Entry 68], in the series on SK-OV-3 cancer cells (SK-OV-3, 72 h), the inhibition at 0.01 µM turned out to be 82%. On the same count and under the same terms, with `CCCC(=O)Nc1ccc2[se]c(C(=O)N3C[C@@H](CCl)c4c3cc(O)c3ccccc43)cc2c1` [Entry 71] the figure was 73%; with `COc1ccc2c(O)cc3c(c2c1)[C@H](CCl)CN3C(=O)c1cc2cc([N+](=O)[O-])ccc2[se]1` [Entry 59, seco-MCBI-Nitro-Selenophene], 74%.

Regarding `COc1ccc2cc(C(=O)N3C[C@@H](CCl)c4c3cc(O)c3ccc(OC)cc43)[se]c2c1` [Entry 64], the inhibition at 0.01 µM with SK-OV-3 cancer cells (SK-OV-3, 72 h) is 85%. Same read-out and setting: as for `COc1ccc2c(O)cc3c(c2c1)[C@H](CCl)CN3C(=O)c1cc2occc2[se]1` [Entry 69], the figure is 73%.

Regarding `CCOC(=O)c1cc2cc(N)ccc2[se]1`, the melting point fell in the range of 78 to 80 °C. With `CCCC(=O)Nc1ccc2[se]c(C(=O)N3C[C@H]4C[C@@]45C3=CC(=O)c3ccccc35)cc2c1` [Entry 72], the inhibition at 0.01 µM in the series with SK-OV-3 cancer cells (SK-OV-3, 72 h) stood at 75%.

(Values after US9365590B2, “Selenophene-fused aromatic compound and manufacturing method thereof” (Industry-Academia Cooperation Group of Sejong University, priority 2011, dated 2016).)
